In US20250230193A1, “CYCLIC COMPOUND HAVING SELECTIVE KRAS INHIBITORY EFFECT ON HRAS AND NRAS” (CHUGAI SEIYAKU KABUSHIKI KAISHA, priority 2022, published 2025):

Key:
[1] = biological target: GDP-bound HRAS wild-type protein (Homo sapiens, UniProt P01112); experiment: Binding to HRAS by surface plasmon resonance (SPR), Single Cycle Kinetics; details: KD ratio HRAS/KRAS, SPR, GDP-bound wild-type proteins
[2] = biological target: GDP-bound NRAS wild-type protein (Homo sapiens, UniProt P01111); experiment: Binding to NRAS by surface plasmon resonance (SPR), Single Cycle Kinetics; details: KD ratio NRAS/KRAS, SPR, GDP-bound wild-type proteins
Sequence of GDP-bound NRAS wild-type protein (P01111 whole entry): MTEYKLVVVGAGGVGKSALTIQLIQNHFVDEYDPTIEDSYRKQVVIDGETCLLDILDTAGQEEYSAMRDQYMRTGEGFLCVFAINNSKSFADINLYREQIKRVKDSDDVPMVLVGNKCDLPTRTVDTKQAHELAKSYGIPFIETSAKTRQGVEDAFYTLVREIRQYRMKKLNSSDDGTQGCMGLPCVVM

Sequence of GDP-bound HRAS wild-type protein (P01112 whole entry): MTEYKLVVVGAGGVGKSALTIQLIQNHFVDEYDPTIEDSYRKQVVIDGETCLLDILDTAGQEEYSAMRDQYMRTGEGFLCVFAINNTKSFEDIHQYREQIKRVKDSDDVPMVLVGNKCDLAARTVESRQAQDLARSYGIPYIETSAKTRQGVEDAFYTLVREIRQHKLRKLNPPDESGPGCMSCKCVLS

Compound	HRAS/KRAS (ratio of KD value with respect to GDP-bound HRAS wild-type protein to KD value with respect to KRAS) [1]	NRAS/KRAS (ratio of KD value with respect to GDP-bound NRAS wild-type protein to KD value with respect to KRAS) [2]
CCO[C@@H]1C[C@H]2C(=O)NC3(CCC3)C(=O)N(C)[C@@H](C(CC)CC)C(=O)N(C)[C@H](C(=O)N3CCCC3)CC(=O)N(C)[C@H]3CCCCC/C=C/c4ccc(cc4)C[C@@H](C(=O)N(C)CC(=O)N[C@@H](CCc4ccc(Cl)c(Cl)c4)C(=O)N2C1)N1CC/C=C\C[C@@H](C1=O)N(C)C(=O)CN(C)C(=O)[C@H]([C@@H](C)CC)NC3=O [PP3052]	A (a compound having 10 or more and less than 20 is denoted as A)	AA (a compound having 20 or more is denoted as AA)
CC[C@H](C)[C@@H]1NC(=O)[C@@H]2CCC/C=C/c3ccc(cc3)C[C@@H](C(=O)N(C)CC(=O)N[C@@H](CCc3ccc(Cl)c(Cl)c3)C(=O)N3C[C@H](OC4CCC4)C[C@H]3C(=O)NC3(CC(C)(C)C3)C(=O)N(C)[C@@H](C3CCCC3)C(=O)N(C)[C@H](C(=O)N3CCCC3)CC(=O)N2C)N2CC/C=C\C[C@@H](C2=O)N(C)C(=O)CN(C)C1=O [PP3053]	A (a compound having 10 or more and less than 20 is denoted as A)	A (a compound having 10 or more and less than 20 is denoted as A)
CC[C@H](C)[C@@H]1NC(=O)[C@@H]2CCC/C=C/c3ccc(cc3)C[C@@H](C(=O)N(C)CC(=O)N[C@@H](CCc3ccc(Cl)c(Cl)c3)C(=O)N3C[C@H](OC4CCCC4)C[C@H]3C(=O)NC3(CC(C)(C)C3)C(=O)N(C)[C@@H](C3CCCC3)C(=O)N(C)[C@H](C(=O)N3CCCC3)CC(=O)N2C)N2CC/C=C\C[C@@H](C2=O)N(C)C(=O)CN(C)C1=O [PP3054]	A (a compound having 10 or more and less than 20 is denoted as A)	A (a compound having 10 or more and less than 20 is denoted as A)
CCO[C@@H]1C[C@H]2C(=O)NC3(CC(C)(C)C3)C(=O)N(C)[C@@H](C3CCCC3)C(=O)N(C)[C@H](C(=O)N(C)CC)CC(=O)N(C)[C@H]3C/C=C/c4ccc(cc4)C[C@@H](C(=O)N(C)CC(=O)N[C@@H](CCc4ccc(Cl)c(Cl)c4)C(=O)N2C1)N1CC/C=C\C[C@@H](C1=O)N(C)C(=O)CN(C)C(=O)[C@H]([C@@H](C)CC)NC3=O [PP3056]	A (a compound having 10 or more and less than 20 is denoted as A)	A (a compound having 10 or more and less than 20 is denoted as A)
CCO[C@@H]1C[C@H]2C(=O)NC3(CC(C)(C)C3)C(=O)N(C)[C@@H](C3CCCC3)C(=O)N(C)[C@H](C(=O)N(C)C)CC(=O)N(C)[C@H]3CCCCC/C=C/c4ccc(cc4)C[C@@H](C(=O)N(C)CC(=O)N[C@@H](CCc4ccc(Cl)c(Cl)c4)C(=O)N2C1)N1CC/C=C\C[C@@H](C1=O)N(C)C(=O)CN(C)C(=O)[C@H]([C@@H](C)CC)NC3=O [PP3057]	B (a compound having 3 or more and less than 10 is denoted as B)	A (a compound having 10 or more and less than 20 is denoted as A)
CC[C@H](C)[C@@H]1NC(=O)[C@@H]2CCC/C=C/c3ccc(cc3)C[C@@H](C(=O)N(C)CC(=O)N[C@@H](CCc3ccc(Cl)c(Cl)c3)C(=O)N3C[C@H](OC4CCC4)C[C@H]3C(=O)NC3(CC(C)(C)C3)C(=O)N(C)[C@@H](C3CCCC3)C(=O)N(C)[C@H](C(=O)N(C)CC)CC(=O)N2C)N2CC/C=C\C[C@@H](C2=O)N(C)C(=O)CN(C)C1=O [PP3058]	A (a compound having 10 or more and less than 20 is denoted as A)	A (a compound having 10 or more and less than 20 is denoted as A)
CCO[C@@H]1C[C@H]2C(=O)N(C)C3(CC(C)(C)C3)C(=O)N(C)[C@@H](C3CCCC3)C(=O)N(C)[C@H](C(=O)N(C)C)CC(=O)N(C)[C@H]3CCC/C=C/c4ccc(cc4)C[C@@H](C(=O)N(C)CC(=O)N[C@@H](CCc4ccc(Cl)c(Cl)c4)C(=O)N2C1)N1CC/C=C\C[C@@H](C1=O)N(C)C(=O)CN(C)C(=O)[C@H]([C@@H](C)CC)NC3=O [PP3059]	A (a compound having 10 or more and less than 20 is denoted as A)	A (a compound having 10 or more and less than 20 is denoted as A)
CCO[C@@H]1C[C@H]2C(=O)N(C)C3(CC(C)(C)C3)C(=O)N(C)[C@@H](C3CCCC3)C(=O)N(C)[C@H](C(=O)N(C)C)CC(=O)N(C)[C@H]3CCC/C=C/c4ccc(cc4)C[C@@H](C(=O)N(C)CC(=O)N[C@@H](CCc4cc(F)c(C(F)(F)F)c(F)c4)C(=O)N2C1)N1CC/C=C\C[C@@H](C1=O)N(C)C(=O)CN(C)C(=O)[C@H]([C@@H](C)CC)NC3=O [PP3060]	B (a compound having 3 or more and less than 10 is denoted as B)	B (a compound having 3 or more and less than 10 is denoted as B)
CCO[C@@H]1C[C@H]2C(=O)N(C)C3(CC(C)(C)C3)C(=O)N(C)[C@@H](C3CCCC3)C(=O)N(C)[C@H](C(=O)N(C)C)CC(=O)N(C)[C@H]3CCC/C=C/c4ccc(cc4)C[C@@H](C(=O)N(C)CC(=O)N[C@@H](CCc4ccc(Cl)c(Cl)c4)C(=O)N2C1)N1CC/C=C\C[C@@H](C1=O)N(C)C(=O)CN(C1CC1)C(=O)[C@H]([C@@H](C)CC)NC3=O [PP3061]	A (a compound having 10 or more and less than 20 is denoted as A)	A (a compound having 10 or more and less than 20 is denoted as A)
CCO[C@@H]1C[C@H]2C(=O)N(C)C3(CC(C)(C)C3)C(=O)N(C)[C@@H](C3CCCC3)C(=O)N(C)[C@H](C(=O)N(C)C)CC(=O)N(C)[C@H]3CCCC/C=C/c4ccc(cc4)C[C@@H](C(=O)N(C)CC(=O)N[C@@H](CCc4ccc(Cl)c(Cl)c4)C(=O)N2C1)N1CC/C=C\C[C@@H](C1=O)N(C)C(=O)CN(C)C(=O)[C@H]([C@@H](C)CC)NC3=O [PP3062]	A (a compound having 10 or more and less than 20 is denoted as A)	A (a compound having 10 or more and less than 20 is denoted as A)
CCCO[C@@H]1C[C@H]2C(=O)NC3(CC(C)(C)C3)C(=O)N(C)[C@@H](C(CC)CC)C(=O)N(C)[C@H](C(=O)N(C)C)CC(=O)N(C)[C@H]3CCCc4ccc(cc4)C[C@@H](C(=O)N(C)CC(=O)N[C@@H](CCc4ccc(C(F)(F)F)c(OC)c4)C(=O)N2C1)N1CC/C=C\C[C@@H](C1=O)N(C)C(=O)CN(C)C(=O)[C@H]([C@@H](C)CC)NC3=O [PP3063]	B (a compound having 3 or more and less than 10 is denoted as B)	B (a compound having 3 or more and less than 10 is denoted as B)
CCCO[C@@H]1C[C@H]2C(=O)NC3(CC(C)(C)C3)C(=O)N(C)[C@@H](C3CCCC3)C(=O)N(C)[C@H](C(=O)N3CCCCC3)CC(=O)N(C)[C@H]3CCCc4ccc(cc4)C[C@@H](C(=O)N(C)CC(=O)N[C@@H](CCc4ccc(C(F)(F)F)c(OC)c4)C(=O)N2C1)N1CC/C=C\C[C@@H](C1=O)N(C)C(=O)CN(C)C(=O)[C@H]([C@@H](C)CC)NC3=O [PP3064]	B (a compound having 3 or more and less than 10 is denoted as B)	B (a compound having 3 or more and less than 10 is denoted as B)
CCCO[C@@H]1C[C@H]2C(=O)NC3(CC(C)(C)C3)C(=O)N(C)[C@@H](C3CCCC3)C(=O)N(C)[C@H](C(=O)N3CCCC3)CC(=O)N(C)[C@H]3CCCc4ccc(cc4)C[C@@H](C(=O)N(C)CC(=O)N[C@@H](CCc4ccc(C(F)(F)F)c(OC)c4)C(=O)N2C1)N1CC/C=C\C[C@@H](C1=O)N(C)C(=O)CN(C)C(=O)[C@H]([C@@H](C)CC)NC3=O [PP3065]	B (a compound having 3 or more and less than 10 is denoted as B)	A (a compound having 10 or more and less than 20 is denoted as A)
CCO[C@@H]1C[C@H]2C(=O)NC3(CC(C)(C)C3)C(=O)N(C)[C@@H](C3CCCC3)C(=O)N(C)[C@H](C(=O)N(C)C)CC(=O)N(C)[C@H]3CCCCCCc4ccc(cc4)C[C@@H](C(=O)N(C)CC(=O)N[C@@H](CCc4ccc(C(F)(F)F)c(OC)c4)C(=O)N2C1)N1CC/C=C\C[C@@H](C1=O)N(C)C(=O)CN(C)C(=O)[C@H]([C@@H](C)CC)NC3=O [PP3066]	B (a compound having 3 or more and less than 10 is denoted as B)	A (a compound having 10 or more and less than 20 is denoted as A)
CC[C@H](C)[C@@H]1NC(=O)[C@@H]2CCCCCCc3ccc(cc3)C[C@@H](C(=O)N(C)CC(=O)N[C@@H](CCc3ccc(C(F)(F)F)c(OC)c3)C(=O)N3C[C@H](OC(C)C)C[C@H]3C(=O)NC3(CC(C)(C)C3)C(=O)N(C)[C@@H](C3CCCC3)C(=O)N(C)[C@H](C(=O)N(C)C)CC(=O)N2C)N2CC/C=C\C[C@@H](C2=O)N(C)C(=O)CN(C)C1=O [PP3067]	B (a compound having 3 or more and less than 10 is denoted as B)	A (a compound having 10 or more and less than 20 is denoted as A)
